Reference: PubChem BioAssay AID192 (DTP/NCI, 2004)
Toxic doses and inconclusive results are not listed.

Test system: BDF1 mice, B16 melanoma ip, median survival T/C
Experiment: NCI In Vivo Anticancer Drug Screen. Data for tumor model B16 Melanoma (intraperitoneal) in B6D2F1 (BDF1) mice
Details: endpoint: median survival time, higher = longer survival
Outline: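 Tumor-bearing mice received test compound or vehicle. Survival or tumor size was then measured in both groups. The treated-group figure was divided by the control-group figure.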

[1] = dose: 25.0 mg/kg/injection, schedule: Q01DX009 (ip), vehicle: Klucel (hydroxypropylcellulose) (HPC)
[2] = dose: 50.0 mg/kg/injection, schedule: Q01DX009 (ip), vehicle: Klucel (hydroxypropylcellulose) (HPC)
[3] = dose: 100.0 mg/kg/injection, schedule: Q04DX003 (ip), vehicle: Klucel (hydroxypropylcellulose) (HPC)
[4] = dose: 200.0 mg/kg/injection, schedule: Q04DX003 (ip), vehicle: Klucel (hydroxypropylcellulose) (HPC)
[5] = dose: 12.5 mg/kg/injection, schedule: Q01DX009 (ip), vehicle: saline
[6] = dose: 25.0 mg/kg/injection, schedule: Q01DX009 (ip), vehicle: saline
[7] = dose: 25.0 mg/kg/injection, schedule: Q01DX009 (ip), vehicle: saline with Tween-80
[8] = dose: 50.0 mg/kg/injection, schedule: Q01DX009 (ip), vehicle: saline with Tween-80
[9] = dose: 100.0 mg/kg/injection, schedule: Q01DX009 (ip), vehicle: saline with Tween-80
[10] = dose: 200.0 mg/kg/injection, schedule: Q01DX009 (ip), vehicle: saline with Tween-80
[11] = dose: 100.0 mg/kg/injection, schedule: Q01DX009 (ip), vehicle: Klucel (hydroxypropylcellulose) (HPC)
[12] = dose: 200.0 mg/kg/injection, schedule: Q01DX009 (ip), vehicle: Klucel (hydroxypropylcellulose) (HPC)
[13] = dose: 50.0 mg/kg/injection, schedule: Q01DX009 (ip), vehicle: saline
[14] = dose: 100.0 mg/kg/injection, schedule: Q04DX003 (ip), vehicle: saline with Tween-80
[15] = dose: 200.0 mg/kg/injection, schedule: Q04DX003 (ip), vehicle: saline with Tween-80
[16] = dose: 400.0 mg/kg/injection, schedule: Q01DX009 (ip), vehicle: Klucel (hydroxypropylcellulose) (HPC)
[17] = dose: 400.0 mg/kg/injection, schedule: Q04DX003 (ip), vehicle: saline with Tween-80
[18] = dose: 400.0 mg/kg/injection, schedule: Q01DX009 (ip), vehicle: saline with Tween-80

Cl/C(=N\Nc1ccccc1)c1ccccc1
T/C (dose: 1.56 mg/kg/injection, schedule: Q01DX009 (ip), vehicle: Klucel (hydroxypropylcellulose) (HPC)): 97 % of control | T/C (dose: 3.13 mg/kg/injection, schedule: Q01DX009 (ip), vehicle: Klucel (hydroxypropylcellulose) (HPC)): 86 % of control | T/C (dose: 6.25 mg/kg/injection, schedule: Q01DX009 (ip), vehicle: Klucel (hydroxypropylcellulose) (HPC)): 90 % of control

CN1CCN(CCNc2ccc(CO)c3sc4ccccc4c(=O)c23)CC1
T/C [1]: 110 % of control | T/C [2]: 116 % of control

CC(C)[C@]12O[C@H]1[C@@H]1O[C@]13[C@]1(O[C@H]1C[C@H]1C4=C(C(=O)OC4)[C@@H](O)C[C@@]13C)[C@@H]2O
T/C (dose: 12.5 micrograms/kg/injection, schedule: Q01DX009 (ip), vehicle: saline + alcohol): 112 % of control | T/C (dose: 25.0 micrograms/kg/injection, schedule: Q01DX009 (ip), vehicle: saline + alcohol): 110 % of control | T/C (dose: 50.0 micrograms/kg/injection, schedule: Q01DX009 (ip), vehicle: saline + alcohol): 110 % of control | T/C (dose: 63.0 micrograms/kg/injection, schedule: Q01DX009 (ip), vehicle: saline + alcohol): 102 % of control | T/C (dose: 100.0 micrograms/kg/injection, schedule: Q01DX009 (ip), vehicle: saline + alcohol): 122 % of control | T/C (dose: 125.0 micrograms/kg/injection, schedule: Q01DX009 (ip), vehicle: saline + alcohol): 111 % of control | T/C (dose: 250.0 micrograms/kg/injection, schedule: Q01DX009 (ip), vehicle: saline + alcohol): 107 % of control

CCN(CC)CCOc1cc(C)ccc1C(C)C
T/C [2]: 111 % of control | T/C (dose: 50.0 mg/kg/injection, schedule: Q04DX003 (ip), vehicle: Klucel (hydroxypropylcellulose) (HPC)): 95 % of control | T/C [3]: 97 % of control | T/C [4]: 86 % of control

CC(C)C[CH2][Pb]([Cl])([CH2]CC(C)C)[CH2]CC(C)C
T/C (dose: 0.06 mg/kg/injection, schedule: Q01DX009 (ip), vehicle: saline): 95 % of control | T/C (dose: 0.12 mg/kg/injection, schedule: Q01DX009 (ip), vehicle: Klucel (hydroxypropylcellulose) (HPC)): 100 % of control | T/C (dose: 0.12 mg/kg/injection, schedule: Q01DX009 (ip), vehicle: saline): 104 % of control | T/C (dose: 0.25 mg/kg/injection, schedule: Q01DX009 (ip), vehicle: saline): 96 % of control | T/C (dose: 0.5 mg/kg/injection, schedule: Q01DX009 (ip), vehicle: Klucel (hydroxypropylcellulose) (HPC)): 93 % of control | T/C (dose: 0.5 mg/kg/injection, schedule: Q01DX009 (ip), vehicle: saline): 100 % of control | T/C (dose: 1.0 mg/kg/injection, schedule: Q01DX009 (ip), vehicle: Klucel (hydroxypropylcellulose) (HPC)): 89 % of control | T/C (dose: 1.0 mg/kg/injection, schedule: Q01DX009 (ip), vehicle: saline): 104 % of control | T/C (dose: 2.0 mg/kg/injection, schedule: Q01DX009 (ip), vehicle: saline): 101 % of control | T/C (dose: 4.0 mg/kg/injection, schedule: Q01DX009 (ip), vehicle: saline): 98 % of control | T/C (dose: 8.0 mg/kg/injection, schedule: Q01DX009 (ip), vehicle: saline): 94 % of control

CN(C)CCC=C1c2ccccc2CCc2ccccc21
T/C (dose: 3.12 mg/kg/injection, schedule: Q01DX009 (ip), vehicle: saline): 109 % of control | T/C (dose: 6.25 mg/kg/injection, schedule: Q01DX009 (ip), vehicle: saline): 117 % of control | T/C [5]: 100 % of control | T/C [6]: 102 % of control

Cc1cc(C)c(NC(=O)NC(C)C)c(C)c1
T/C [3]: 100 % of control | T/C [4]: 90 % of control | T/C (dose: 400.0 mg/kg/injection, schedule: Q04DX003 (ip), vehicle: Klucel (hydroxypropylcellulose) (HPC)): 87 % of control

OCCOc1c(Cl)c(Cl)c(Cl)c(Cl)c1Cl
T/C [7]: 100 % of control | T/C [8]: 92 % of control | T/C [9]: 97 % of control

Cc1cc(C)c(OCC(O)CO)c(C)c1 (stereo not given)
T/C [9]: 104 % of control | T/C [10]: 93 % of control

CC1(C)N=C(N)N=C(N)N1c1ccc(OCCOc2ccc(S(=O)(=O)F)cc2)c(Cl)c1
T/C (dose: 12.5 mg/kg/injection, schedule: Q04DX003 (ip), vehicle: saline): 107 % of control | T/C (dose: 25.0 mg/kg/injection, schedule: Q04DX003 (ip), vehicle: saline): 121 % of control

[N-]=[N+]=C1Cc2ccccc2C1=O
T/C [11]: 97 % of control | T/C [12]: 105 % of control

C=C1C(=O)O[C@@H]2C[C@@H](C)[C@@H]3[C@@H](OC4OC(COC(C)=O)C(O)C(O)C4O)CC(=O)[C@@]3(C)C[C@H]12 (stereo not given in full)
T/C (dose: 6.4 mg/kg/injection, schedule: Q01DX009 (ip), vehicle: saline): 95 % of control | T/C (dose: 9.6 mg/kg/injection, schedule: Q01DX009 (ip), vehicle: saline): 100 % of control | T/C (dose: 14.0 mg/kg/injection, schedule: Q01DX009 (ip), vehicle: saline): 100 % of control | T/C (dose: 22.0 mg/kg/injection, schedule: Q01DX009 (ip), vehicle: saline): 100 % of control

O=C(O)c1ccc(OC(F)(F)C(F)Cl)cc1 (stereo not given)
T/C [1]: 106 % of control | T/C [2]: 100 % of control | T/C [11]: 106 % of control

O=c1[nH]c(=O)n(C2CC(O)C(CO)O2)cc1Br (stereo not given)
T/C [1]: 101 % of control | T/C [2]: 117 % of control

CCC(C)C(C(=O)OC1CCN(C)CC1)c1ccccc1 (stereo not given)
T/C [6]: 101 % of control | T/C [13]: 90 % of control

COc1ccc(-c2c(CC(=O)O)c3cc(OC)ccc3n2Cc2ccc(Cl)cc2)cc1
T/C [11]: 95 % of control | T/C [14]: 100 % of control | T/C [12]: 94 % of control | T/C [15]: 95 % of control | T/C [16]: 95 % of control | T/C [17]: 95 % of control

CC1=CC(=O)[C@@H](O)[C@]2(C)[C@H]3[C@@]4(O)OC[C@]35[C@H]([C@@H](C)[C@H]4O)[C@@H](OC(=O)c3ccccc3)C(=O)O[C@@H]5C[C@@H]12
T/C (dose: 0.25 mg/kg/injection, schedule: Q01DX009 (ip), vehicle: saline with Tween-80): 118 % of control | T/C (dose: 2.0 mg/kg/injection, schedule: Q01DX009 (ip), vehicle: saline with Tween-80): 171 % of control

Cc1cccc(C(=O)CC(O)(C(F)(F)F)C(F)(F)F)n1
T/C [14]: 110 % of control | T/C [15]: 100 % of control | T/C [17]: 100 % of control

NC(=O)c1ccccc1NC(=O)Nc1ccccc1
T/C [11]: 89 % of control | T/C [12]: 91 % of control | T/C [16]: 89 % of control

CN(CCCN(C)CCC1CCCCC1)CCC1CCCCC1
T/C (dose: 12.5 mg/kg/injection, schedule: Q01DX009 (ip), vehicle: saline with Tween-80): 92 % of control | T/C [7]: 95 % of control

Cc1ccc(C(=O)/C=C/c2ccccc2O)cc1
T/C (dose: 37.5 mg/kg/injection, schedule: Q01DX009 (ip), vehicle: Klucel (hydroxypropylcellulose) (HPC)): 103 % of control | T/C (dose: 75.0 mg/kg/injection, schedule: Q01DX009 (ip), vehicle: Klucel (hydroxypropylcellulose) (HPC)): 90 % of control | T/C (dose: 150.0 mg/kg/injection, schedule: Q01DX009 (ip), vehicle: Klucel (hydroxypropylcellulose) (HPC)): 98 % of control | T/C (dose: 300.0 mg/kg/injection, schedule: Q01DX009 (ip), vehicle: Klucel (hydroxypropylcellulose) (HPC)): 88 % of control

C=C1CCN2CCCC12 (stereo not given)
T/C (dose: 10.0 mg/kg/injection, schedule: Q01DX009 (ip), vehicle: saline): 107 % of control | T/C (dose: 20.0 mg/kg/injection, schedule: Q01DX009 (ip), vehicle: saline): 104 % of control | T/C (dose: 40.0 mg/kg/injection, schedule: Q01DX009 (ip), vehicle: saline): 100 % of control | T/C (dose: 80.0 mg/kg/injection, schedule: Q01DX009 (ip), vehicle: saline): 95 % of control

CC(C)CC(NC(=O)OCc1ccccc1)C(=O)O (stereo not given)
T/C [14]: 102 % of control | T/C [10]: 106 % of control | T/C [18]: 121 % of control

COc1ccc(NC(=O)Nc2cccc(Cl)c2C)cc1
T/C [7]: 100 % of control | T/C [8]: 102 % of control

C[N+](C)(C)c1ncnc2nc[nH]c12
T/C [5]: 92 % of control | T/C [6]: 89 % of control | T/C [13]: 93 % of control | T/C (dose: 100.0 mg/kg/injection, schedule: Q01DX009 (ip), vehicle: saline): 103 % of control | T/C (dose: 200.0 mg/kg/injection, schedule: Q01DX009 (ip), vehicle: saline): 87 % of control

COc1cc(NC(=O)CN(CCCl)CCCl)cc(OC)c1OC
T/C [9]: 170 % of control | T/C [18]: 161 % of control
